These results are taken from PMC13021670, “Novel small molecule targeting PgQC reduces Porphyromonas gingivalis virulence” (Frontiers in Oral Health, 2026).

Structures are written as SMILES.

This assay addresses T1, P. gingivalis glutaminyl cyclase (PgQC) (Porphyromonas gingivalis, UniProt Q7MT37).
T1 construct: gene PG_2157; Recombinant P. gingivalis glutaminyl cyclase
Put plainly: fluorogenic enzyme assay with H-Gln-AMC, recombinant purified PgQC ([…]), fit to competitive inhibition. Type of assay: biochemical.

T1 sequence (Q7MT37 entry or part of it): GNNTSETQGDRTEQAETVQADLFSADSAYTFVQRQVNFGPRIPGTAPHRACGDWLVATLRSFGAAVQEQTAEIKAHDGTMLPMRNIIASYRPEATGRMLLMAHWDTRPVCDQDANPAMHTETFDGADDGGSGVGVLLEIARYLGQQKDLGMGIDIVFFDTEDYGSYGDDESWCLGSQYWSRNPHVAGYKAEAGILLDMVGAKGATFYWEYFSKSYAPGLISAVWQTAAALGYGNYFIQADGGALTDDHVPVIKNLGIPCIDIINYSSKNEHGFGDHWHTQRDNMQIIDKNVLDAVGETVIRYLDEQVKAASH

In the case of `N=C(N)NCCOc1ccc(CNc2cnc3nc[nH]c3c2)cc1` [S-0636, 1-(2-(4-((lmidazo[4,5-b]pyridin-6-ylamino)methyl)-phenoxy)ethyl)guanidine], the Ki (usually a dissociation constant, usually derived from enzyme kinetics or from competition with a known ligand) worked out at 14 nM.
